Assay results reported in US6342602B1, “Aryl or heteroaryl amides of tetrahydronaphthalene, chroman, thichroman and 1,2,3,4-tetrahydroquinolinecarboxlic acids, having an electron withdrawing substituent in the aromatic or heteroaromatic moiety, having retinoid-like biological activity” (Allergan Sales, Inc., priority 1995, dated 2002).
pKd: −log10 of the molar value. Like-named read-outs stand apart in the source and are kept apart here.

Key:
Assay in all cases: Ligand binding assay
[1] = biological target: T1, RARΓ (Homo sapiens, UniProt P13631)
T1 construct: made in house; used as extract protein
T1 sequence (P13631 1-454): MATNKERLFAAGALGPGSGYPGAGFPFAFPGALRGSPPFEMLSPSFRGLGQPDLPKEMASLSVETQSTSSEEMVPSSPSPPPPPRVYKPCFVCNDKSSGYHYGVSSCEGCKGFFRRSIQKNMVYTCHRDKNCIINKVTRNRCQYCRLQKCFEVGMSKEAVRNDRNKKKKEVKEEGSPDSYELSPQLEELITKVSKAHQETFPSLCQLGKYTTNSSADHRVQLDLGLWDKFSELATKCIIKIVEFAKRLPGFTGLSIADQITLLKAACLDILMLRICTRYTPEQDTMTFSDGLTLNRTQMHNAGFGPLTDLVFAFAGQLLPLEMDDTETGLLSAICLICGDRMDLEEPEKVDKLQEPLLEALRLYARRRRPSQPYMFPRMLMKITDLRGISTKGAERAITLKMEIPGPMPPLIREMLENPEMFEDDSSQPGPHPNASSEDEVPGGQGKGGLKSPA
Experimental: (§1) A holoreceptor transactivation assay and a ligand binding assay which measure the ability of the compounds of the invention to bind to the several retinoid receptor subtypes, respectively, are described in published PCT Application No. WO WO93/11755 (particularly on pages 30-33 and 37-41) published on Jun. 24, 1993, the specification of which is also incorporated herein by reference. A description of the ligand binding assay is also provided below.
(§2) All binding assays were performed in a similar fashion. All six receptor types were derived from the expressed receptor type (RAR α, β, τ and RXR α, β, τ) expressed in Baculovirus. Stock solutions of all compounds were prepared as 10 mM ethanol solutions and serial dilutions carried out into 1:1 DMSO; ethanol. Assay buffers consisted of the following for all six receptor assays: 8% glycerol, 120 mM KCl, 8 mM Tris, 5 mM CHAPS 4 mM DTT and 0.24 mM PMSF, pH-7.4@room temperature.
(§3) All receptor biding assays were performed in the same manner. The final assay volume was 250 μl and contained from […] of extract protein depending on receptor being assayed along with 5 nM of [^3H) alltrans retinoic acid or 10 nM [^3H) 9-cis retinoic acid and varying concentrations of competing ligand at concentrations that ranged from 0-10^−5 M. The assays were formatted for a 96 well minitube system. Incubations were carried out at 4° C. until equilibrium was achieved. Non-specific binding was defined as that binding remaining in the presence of 1000 nM of the appropriate unlabeled retinoic acid isomer. At the end of the incubation period, 50 μl of 6.25% hydroxyapitite was added in the appropriate wash buffer. The wash buffer consisted of 100 mM KCl, 10 mM Tris and either 5 mM CHAPS (RXR α, β, τ) or 0.5% Triton X-100 (RAR α, β, τ). The mixture was vortexed and incubated for 10 minutes at 4° C., centrifuged and the supernatant removed. The hydroxyapitite was washed three more times with the appropriate wash buffer. The receptor-ligand complex was adsorbed by the hydroxyapitite. The amount of receptor-ligand complex was determined by liquid scintillation counting of hydroxyapitite pellet.
(§4) After correcting for non-specific binding, IC50 values were determined. […] The IC50 value was determined graphically from a loglogit plot of the data. The Kd values were determined by application of the ChengPrussof equation to the IC50 values, the labeled ligand concentration and the Kd of the labeled ligand.
(§5) The results of ligand binding assay are expressed in Kd numbers. (See Cheng et al. Biochemical Pharmacology Vol. 22 pp 3099-3108, expressly incorporated herein by reference.)

[2] = biological target: T2, RXRβ (Homo sapiens, UniProt P28702); conditions: receptor expressed in Baculovirus; competition with [3H] retinoic acid; Cheng-Prusoff from IC50
T2 construct: made in house; used as extract protein
T2 sequence (P28702 1-533): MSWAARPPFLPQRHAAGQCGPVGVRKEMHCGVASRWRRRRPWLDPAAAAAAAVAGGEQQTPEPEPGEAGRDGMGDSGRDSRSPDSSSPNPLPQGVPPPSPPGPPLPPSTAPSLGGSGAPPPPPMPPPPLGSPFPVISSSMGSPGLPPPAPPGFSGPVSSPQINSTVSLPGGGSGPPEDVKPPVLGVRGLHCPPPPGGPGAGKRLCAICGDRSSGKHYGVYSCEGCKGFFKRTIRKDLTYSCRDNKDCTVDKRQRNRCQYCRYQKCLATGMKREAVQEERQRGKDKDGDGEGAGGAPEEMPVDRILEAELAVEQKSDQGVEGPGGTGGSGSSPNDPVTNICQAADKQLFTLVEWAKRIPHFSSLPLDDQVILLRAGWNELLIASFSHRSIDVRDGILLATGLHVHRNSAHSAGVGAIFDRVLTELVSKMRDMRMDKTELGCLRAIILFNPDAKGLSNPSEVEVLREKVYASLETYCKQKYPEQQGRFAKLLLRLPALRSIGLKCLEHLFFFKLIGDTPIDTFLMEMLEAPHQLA
Experimental: as §1, §2, §3, §4, §5

[3] = biological target: T3, RXRΓ (Homo sapiens, UniProt P48443); conditions: receptor expressed in Baculovirus; competition with [3H] retinoic acid; Cheng-Prusoff from IC50
T3 construct: made in house; used as extract protein
T3 sequence (P48443 1-463): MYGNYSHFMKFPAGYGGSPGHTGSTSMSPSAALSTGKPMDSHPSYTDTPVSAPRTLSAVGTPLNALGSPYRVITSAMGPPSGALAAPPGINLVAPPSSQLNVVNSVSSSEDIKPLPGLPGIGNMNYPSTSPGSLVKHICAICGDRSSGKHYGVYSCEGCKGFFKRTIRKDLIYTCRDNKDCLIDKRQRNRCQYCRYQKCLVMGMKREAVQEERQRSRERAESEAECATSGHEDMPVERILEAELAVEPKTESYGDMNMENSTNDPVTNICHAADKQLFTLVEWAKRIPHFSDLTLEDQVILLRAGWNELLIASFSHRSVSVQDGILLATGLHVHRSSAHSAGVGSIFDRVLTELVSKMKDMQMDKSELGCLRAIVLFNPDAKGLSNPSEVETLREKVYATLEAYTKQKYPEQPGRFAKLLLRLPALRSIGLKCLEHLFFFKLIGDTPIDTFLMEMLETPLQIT
Experimental: as §1, §2, §3, §4, §5

[4] = biological target: T4, RXRα (Homo sapiens, UniProt P19793); conditions: receptor expressed in Baculovirus; competition with [3H] retinoic acid; Cheng-Prusoff from IC50
T4 construct: made in house; used as extract protein
T4 sequence (P19793 1-462): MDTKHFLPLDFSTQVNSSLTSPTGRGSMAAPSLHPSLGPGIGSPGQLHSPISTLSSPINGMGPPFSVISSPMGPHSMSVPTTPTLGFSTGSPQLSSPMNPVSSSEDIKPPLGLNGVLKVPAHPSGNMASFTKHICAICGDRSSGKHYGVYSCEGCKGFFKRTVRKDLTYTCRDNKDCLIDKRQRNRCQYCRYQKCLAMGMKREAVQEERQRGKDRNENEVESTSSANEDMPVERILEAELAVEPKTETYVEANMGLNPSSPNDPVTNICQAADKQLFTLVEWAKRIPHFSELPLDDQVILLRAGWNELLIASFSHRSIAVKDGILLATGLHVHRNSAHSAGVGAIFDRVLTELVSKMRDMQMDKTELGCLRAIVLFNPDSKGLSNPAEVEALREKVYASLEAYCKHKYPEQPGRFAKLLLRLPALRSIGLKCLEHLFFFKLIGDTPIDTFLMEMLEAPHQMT
Experimental: as §1, §2, §3, §4, §5

[5] = receptor expressed in Baculovirus, competition with [3H] retinoic acid, Cheng-Prusoff from IC50, read-out: Kd RARΓ

Q: With `CC1(C)CCC(C)(C)c2c(Br)cc(C(=O)Nc3ccc(C(=O)O)c(F)c3)cc21` [Compound 6] as the compound, how does the pKd [1, 5] read?
A: The pKd was less than 6.00.

Q: And the pKd [2]?
A: Its pKd is less than 6.00.

Q: What about the pKd [3] of the same compound?
A: The pKd was less than 6.00.

Q: What about the pKd [4] of the same compound?
A: Its pKd is less than 6.00.

Q: `Cc1cc(C(=O)Nc2ccc(C(=O)O)c(F)c2)cc2c1OC(C)(C)CC2(C)C` [Compound 22] was tested. Which pKd [1, 5] did it give?
A: The pKd was less than 6.00.

Q: What about the pKd [2] of the same compound?
A: The pKd was less than 6.00.

Q: What about the pKd [3] of the same compound?
A: The pKd was less than 6.00.

Q: What about the pKd [4] of the same compound?
A: The pKd was less than 6.00.

Q: `CC1(C)CCC(C)(C)c2cc(C(=O)Nc3cc(F)c(C(=O)O)c(F)c3)ccc21` [Compound 38] was tested. Which pKd [1, 5] did it give?
A: The pKd was less than 6.00.

Q: And the pKd [2]?
A: The pKd was less than 6.00.

Q: And the pKd [3]?
A: Its pKd is less than 6.00.

Q: What about the pKd [4] of the same compound?
A: Its pKd is less than 6.00.

Q: `CC1(C)CC(C)(C)c2cc(C(=O)Nc3ccc(C(=O)O)c(F)c3)ccc2O1` [Compound 32] was tested. Which pKd [1, 5] did it give?
A: Its pKd is less than 6.00.

Q: What about the pKd [2] of the same compound?
A: The pKd was less than 6.00.

Q: And the pKd [3]?
A: The pKd was less than 6.00.

Q: What about the pKd [4] of the same compound?
A: The pKd was less than 6.00.

Q: With `CC1(C)CCC(C)(C)c2c1cc(C(=O)Nc1cc(F)c(C(=O)O)c(F)c1)c(O)c2Br` [Compound 36] as the compound, how does the pKd [1] read?
A: Its pKd is less than 6.00.

Q: And the pKd [2]?
A: Its pKd is less than 6.00.

Q: And the pKd [3]?
A: The pKd was less than 6.00.

Q: What about the pKd [4] of the same compound?
A: Its pKd is less than 6.00.

Q: How did the pKd [1, 5] turn out when `CC1(C)CCC(C)(C)c2cc(C(=O)Nc3ccc(C(=O)O)c(F)c3)ccc21` [Compound 2] was run?
A: Its pKd is less than 6.00.

Q: What about the pKd [2] of the same compound?
A: Its pKd is less than 6.00.

Q: And the pKd [3]?
A: Its pKd is less than 6.00.

Q: What about the pKd [4] of the same compound?
A: The pKd was less than 6.00.

Q: How did the pKd [1, 5] turn out when `CC1(C)CCC(C)(C)c2cc(C(=O)Nc3ccc(C(=O)O)c(F)c3)c(O)cc21` [Compound 8] was run?
A: The pKd was less than 6.00.

Q: And the pKd [2]?
A: The pKd was less than 6.00.

Q: What about the pKd [3] of the same compound?
A: The pKd was less than 6.00.

Q: And the pKd [4]?
A: The pKd was less than 6.00.

Q: What does the source list for `CC1(C)CCC(C)(C)c2cc(C(=O)Nc3ccc(C(=O)O)cc3)c(F)cc21` [Compound 4]?
A: pKd [1, 5]: 7.02; pKd [2]: < 6.00; pKd [3]: < 6.00; pKd [4]: < 6.00

Q: How did the pKd [1, 5] turn out when `CC1(C)CC(C)(C)c2cc(C(=O)Nc3ccc(C(=O)O)c(F)c3)cc(N=[N+]=[N-])c2O1` [Compound 16, 2-Fluoro-4-[(21′,2′,4′,4′-tetramethyl-8′-azidochroman-6′-yl)carbamoyl]benzoic Acid] was run?
A: Its pKd is less than 6.00.

Q: What about the pKd [2] of the same compound?
A: Its pKd is less than 6.00.

Q: And the pKd [3]?
A: Its pKd is less than 6.00.

Q: And the pKd [4]?
A: Its pKd is less than 6.00.

Q: `CC1(C)CC(C)(C)c2cc(C(=O)Nc3ccc(C(=O)O)c(F)c3)cc(Br)c2O1` [Compound 12] was tested. Which pKd [1, 5] did it give?
A: Its pKd is less than 6.00.

Q: What about the pKd [2] of the same compound?
A: Its pKd is less than 6.00.

Q: What about the pKd [3] of the same compound?
A: Its pKd is less than 6.00.

Q: What about the pKd [4] of the same compound?
A: Its pKd is less than 6.00.

Q: With `CC1(C)CCC(C)(C)c2cc(C(=S)Nc3ccc(C(=O)O)cc3)ccc21` [Compound 26] as the compound, how does the pKd [1, 5] read?
A: The pKd was less than 6.00.

Q: What about the pKd [2] of the same compound?
A: Its pKd is less than 6.00.

Q: What about the pKd [3] of the same compound?
A: The pKd was less than 6.00.

Q: What about the pKd [4] of the same compound?
A: Its pKd is less than 6.00.

Q: Which results are given for `CC1(C)CC(C)(C)c2cc(C(=O)Nc3cc(F)c(C(=O)O)c(F)c3)cc(C(F)(F)F)c2O1` [Compound 18, 2,6-Difluoro-4-[(2′,2′,4′,4′-tetramethyl-8′-trifluoromethylchroman-6′-yl)carbamoyl]benzoic Acid]?
A: pKd [1, 5]: < 6.00; pKd [2]: < 6.00; pKd [3]: < 6.00; pKd [4]: < 6.00

Q: With `CC1(C)CC(C)(C)c2cc(C(=O)Nc3ccc(C(=O)O)c(F)c3)cc(C(F)(F)F)c2O1` [Compound 14] as the compound, how does the pKd [1, 5] read?
A: Its pKd is less than 6.00.

Q: And the pKd [2]?
A: The pKd was less than 6.00.

Q: And the pKd [3]?
A: The pKd was less than 6.00.

Q: What about the pKd [4] of the same compound?
A: Its pKd is less than 6.00.

Q: Which results are given for `CC1(C)CC(C)(C)c2cc(C(=O)Nc3ccc(C(=O)O)c(F)c3)cc(I)c2O1` [Compound 20]?
A: pKd [1, 5]: < 6.00; pKd [2]: < 6.00; pKd [3]: < 6.00; pKd [4]: < 6.00
